Data from patent publication US4668686A, “Imidazoquinoline antithrombrogenic cardiotonic agents” (Bristol-Myers Company, priority 1986, dated 1987).
≈ marks a conversion by molar mass, not a printed value. Read-outs that look alike come from different tables or passages of the source.

Assays:
[1] = tested on: right ventricular contractile force (RVCF); assay: In vivo inotropic activity (right ventricular contractile force, anesthetized ferrets); details: Mustela putorius, intraduodenal, read-out: Inotropic Activity In Vivo - Ferret % Change RVCF
Experimental: This test is carried out in ferrets as follows.
Fasted anesthetized ferrets are instrumented to study hemodynamic parameters as well as right ventricular contractile force using a Walton-Brodie open strain guage arch. Drugs are administered intraduodenally as solutions in DMSO (1 mL or less) and effects on myocardial contractile force and other parameters are monitored for 60 minutes after dosing. Changes in contractile force in response to drug treatment are expressed in terms of percent change from predose control.

[2] = tested on: collagen-induced platelet aggregation; assay: In vitro inhibition of collagen-induced platelet aggregation (aggregometer, rabbit PRP); format: cell-based; details: Oryctolagus cuniculus, read-out: Platelet Inhibition In Vitro - Rabbit PRP EC50 vs. collagen
Experimental: (§1) The aggregometer method of Born (1), as modified by Mustard, et al. (2) was used to assess the in vitro activity of the various compounds as to inhibition of adenosine diphosphate (ADP) and collagen-induced platelet aggregation. Platelet rich plasma (PRP) was separated by centrifugation from citrated (3.8 percent) rabbit blood. […] The various compounds tested were dissolved in dimethylsulfoxide (DMSO) so that 5 mcl added to the platelet rich plasma would yield the desired test concentration. Vehicle control trials were done and compared with aggregation induced in platelet rich plasma containing various concentrations of the test compounds. Dose response curves were obtained and Effective Concentration (EC50) values calculated.

[3] = target: T1, cAMP phosphodiesterase (PDE) obtained from human platelets (Homo sapiens, UniProt Q14432); assay: Inhibition of cyclic AMP phosphodiesterase; format: biochemical
T1 construct: obtained from human platelets; from tissue; host or cells: human platelets
T1 sequence (Q14432 whole entry): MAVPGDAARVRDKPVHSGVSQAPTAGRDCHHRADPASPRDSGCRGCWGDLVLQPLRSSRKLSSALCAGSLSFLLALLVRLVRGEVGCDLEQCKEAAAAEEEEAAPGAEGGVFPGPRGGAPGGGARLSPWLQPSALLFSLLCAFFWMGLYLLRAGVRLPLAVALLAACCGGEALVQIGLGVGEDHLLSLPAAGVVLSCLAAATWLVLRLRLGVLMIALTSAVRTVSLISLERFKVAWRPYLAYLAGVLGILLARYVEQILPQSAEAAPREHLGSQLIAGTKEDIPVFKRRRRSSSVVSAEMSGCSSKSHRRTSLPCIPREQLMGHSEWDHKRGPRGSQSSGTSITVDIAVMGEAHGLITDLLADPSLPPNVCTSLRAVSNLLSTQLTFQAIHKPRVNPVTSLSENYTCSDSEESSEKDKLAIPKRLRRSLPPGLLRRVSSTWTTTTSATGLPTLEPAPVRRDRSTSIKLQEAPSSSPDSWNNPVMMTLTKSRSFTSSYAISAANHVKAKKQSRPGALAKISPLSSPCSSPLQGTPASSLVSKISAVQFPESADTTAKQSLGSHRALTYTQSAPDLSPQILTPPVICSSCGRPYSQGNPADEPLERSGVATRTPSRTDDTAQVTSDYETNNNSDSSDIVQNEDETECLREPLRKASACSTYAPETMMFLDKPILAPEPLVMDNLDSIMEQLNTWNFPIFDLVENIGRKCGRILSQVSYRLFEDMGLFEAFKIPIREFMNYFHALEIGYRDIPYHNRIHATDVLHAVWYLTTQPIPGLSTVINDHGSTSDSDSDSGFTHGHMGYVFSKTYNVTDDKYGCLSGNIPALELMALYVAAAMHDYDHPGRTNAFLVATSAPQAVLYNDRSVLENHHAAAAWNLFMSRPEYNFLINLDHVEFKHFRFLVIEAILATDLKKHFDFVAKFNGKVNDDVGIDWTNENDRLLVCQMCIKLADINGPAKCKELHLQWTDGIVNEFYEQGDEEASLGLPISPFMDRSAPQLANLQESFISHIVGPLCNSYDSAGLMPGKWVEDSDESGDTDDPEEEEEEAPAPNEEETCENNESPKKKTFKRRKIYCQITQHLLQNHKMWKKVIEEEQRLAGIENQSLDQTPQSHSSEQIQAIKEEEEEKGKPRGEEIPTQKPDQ
Experimental: This assay is carried out essentially as described by Thompson, et al., Methods in Enzymology, 38, 205-212 (1974). Briefly, tritium labeled cyclic adenosine monophosphate (cAMP) is incubated with a phosphodiesterase (PDE) enzynme obtained from human platelets which converts a portion of the cAMP to 5'AMP in culture tubes. This reaction is terminated by submerging the tubes in a boiling water bath after which they are placed on ice and an aliquot of snake venom is added to each tube. This, during a second incubation, converts the 5'AMP to adenosine. Ion exchange resin is added to bind the remaining cyclic AMP. The tubes are centrifuged to sediment the resin and a portion of the clear supernatent (which contains radioactive adenosine) is counted in a liquid scintillation counter. The cAMP phosphodiesterase inhibition activity of a test agent is determined by pre-incubating the PDE enzyme preparation with the test agent.

[4] = tested on: ADP-induced platelet aggregation; assay: In vitro inhibition of ADP-induced platelet aggregation (aggregometer, rabbit PRP); format: cell-based; details: Oryctolagus cuniculus, read-out: Platelet Inhibition In Vitro - Rabbit PRP EC50 vs. ADP
Experimental: as §1

[5] = tested on: platelet aggregation vs. ADP; assay: Inhibition of platelet aggregation following oral administration (Ex vivo); format: in vivo; details: Rattus norvegicus, rats, 2 hours after dosing
Experimental: This test is sometimes referred to in the art as an Ex vivo method and was initially described by Fleming, et al., Arch. Int. Pharmacodyn. Ther., 199, 164 (1972). Briefly, the assay is essentially carried out as follows. Aggregometry is performed in vitro as previously described on platelet rich plasma samples obtained from rats dosed with either test compounds or the vehicle. In all cases, activity is determined 2 hours after the drug is administered orally at various doses by gavage as a suspension in […] plus a few drops of Tween 20.

[6] = 3 mg/kg, i.d., mean ± standard error when n more than 1

COc1ccc2nc3[nH]c(=O)[nH]c3cc2c1 [Example 12, 7-Methoxy-1,3-dihydro-2H-imidazo[4,5-b]quinolin-2-one]
change in vivo at 3 mg/kg [1, 6]: 11 ± 4% | EC50 [2]: 0.02 µg/mL (≈ 0.0929 µM)

Cc1cccc2c1CC1NC(=O)NC1=N2 (centres unmarked) [Example 20-3, 8-methyl-1,3,9,9a-tetrahydro-2H-imidazo[4,5-b]quinolin-2-one]
IC50 [3]: 100 nM | change in vivo at 0.3 mg/kg ([1]; 0.3 mg/kg, i.d.): 30 ± 5% | change in vivo at 3 mg/kg [1, 6]: 15 ± 4% | EC50 [2]: 0.03 µg/mL (≈ 0.149 µM) | EC50 [4]: 0.05 µg/mL (≈ 0.248 µM)

O=c1[nH]c2cc3cc(Br)ccc3nc2[nH]1 [Example 22, 7-Bromo-1,3-dihydro-2H-imidazo[4,5-b]quinolin-2-one]
IC50 [3]: 100 nM | EC50 [2]: 0.2 µg/mL (≈ 0.757 µM) | EC50 [4]: 0.3 µg/mL (≈ 1.14 µM)

O=c1[nH]c2cc3ccc(C(F)(F)F)cc3nc2[nH]1 [Example 25, 1,3-Dihydro-6-(trifluoromethyl)-2H-imidazo[4,5-b]quinolin-2-one]
IC50 [3]: 300 nM | EC50 [2]: 0.7 µg/mL (≈ 2.76 µM) | ED50 [5]: > 10 mg/kg | EC50 [4]: 0.4 µg/mL (≈ 1.58 µM)

Cc1ccc2c(c1C)CC1NC(=O)NC1=N2 (centres unmarked) [Example 35, 7,8-Dimethyl-1,3,9,9a-tetrahydro-2H-imidazo-[4,5-b]quinolin-2-one]
IC50 [3]: 30 nM | EC50 [2]: 0.04 µg/mL (≈ 0.186 µM) | ED50 [5]: > 10 mg/kg | EC50 [4]: 0.1 µg/mL (≈ 0.465 µM)

Cc1cccc2c1CC1C(=N2)NC(=O)N1C (centres unmarked) [Example 36, 1,3,9,9a-Tetrahydro-1,8-dimethyl-2H-imidazo[4,5-b]quinolin-2-one]
EC50 [2]: 12 µg/mL (≈ 55.7 µM) | EC50 [4]: 20 µg/mL (≈ 92.9 µM)

OCCN(CCO)c1nc(N2CCCCC2)c2nc(N(CCO)CCO)nc(N3CCCCC3)c2n1 [dipyridamole, reference compound]
ED50 [5]: > 100 mg/kg | EC50 [4]: > 512 µg/mL

Cc1[nH]c(=O)c(C#N)cc1-c1ccncc1 [milrinone, reference compound]
change in vivo at 3 mg/kg [1]: 52%
